Data as given in patent US20130338130A1 (priority 2009, published 2013).
Values after ≈ are worked out from the molar mass of the structure shown. Read-outs that look alike come from different tables or passages of the source.

How the values were obtained:
[1] = tested on: ATCC strain 43300 Staphylococcus aureus; settings: for survival (cfu/ml): 24 hours, triplicate platings
Procedure: Additional antibiotic was added every 24 hours. The growth periods tested were 24 (FIG. 5), 48, 72, 96 and 120 hours.
(§1) USP<51> Antimicrobial Effectiveness protocol was used as the template experimental paradigm. […] All concentrations were plated out to the 10^−7 dilutions to ascertain cfu/ml. […] Additional antibiotic was added at the initial concentration every 24 hours.
ATCC strain 43300 Staphylococcus aureus was streaked out for isolations. An isolated colony was chosen, streaked again and incubated. Isolate was chosen and then diluted to a McFarland standard of one. The estimated value was then taken to inoculate tubes containing growth media and 12, 30 or 60 μg/ml methicillin with approximately 10^5 cfu/ml. These tubes were incubated and plated for counting cfu.
Material was calculated on a 10 ml volume. Sterile methicillin was added to each experimental condition to a final concentration of 12, 30 or 60 μg/ml antibiotic. Lactose Broth positive controls both with and without the 12 μg/ml, 30 μg/ml, 60 μg/ml antibiotic were inoculated with MRSA. […] Tubes were set up in singlet, but plated in triplicate, as described below.
All tubes were then inoculated with a dilution of the selected ATCC strain 43300 Staphylococcus aureus clone giving a final level of colony forming units of 1.49×10^5/ml (log=5.17). The tubes were incubated at 25° C. and mixed periodically. Antibiotic was re-inoculated every 24 hours at the initial concentration to maintain pressure on the organism. Plating was done at 24, 48, 72, and 120 hours. Each condition was plated by diluting 1 ml of growth material into 9 ml of MLB diluent broth. […] This mixture was serial diluted down to 10^−7 with 1 ml placed in triplicate in a sterile petri dish at each dilution point. 20 mls of TSA was added to each dilution, swirled and allowed to solidify. All dilutions were placed in a 35° C. incubator for 24 to 72 hours. Bacterial colonies on each plate were counted and the average taken then changed into log format. […] Graphs were recorded as log of 5.2 for TNTC to show comparison among the other data points.
The tubes were spun down at 5000 rpm for 10 minutes. The supernatant was then decanted into 90 mls of Mueller-Hinton broth with 6 μg/ml methicillin. This is for enrichment and the recovery of any MRSA cells that may be present wether healthy or stressed. The pellet had 10 mls Mueller-Hinton broth with 6 μg/ml methicillin added to it to recover any cells that may be present. Both vessels were incubated at 35° C. for 48 hours and plated each 24 hours. Each vessel was plated at 10 dilutions to obtain a 1 cfu detection limit. Since all vessels were at a 1/10 dilution in the enrichment solution plating each vessel in this manner gave us a detection limit of 1 cfu/ml. […] This time point for graphing purposes will be reported as 0 logs.

[2] = tested on: ATCC strain 43300 Staphylococcus aureus; settings: ATCC strain 43300 (MRSA); cited from earlier work
[3] = tested on: ATCC strain 43300 Staphylococcus aureus
Procedure: Additional antibiotic was added every 24 hours. The growth periods tested were 24 (see FIG. 4), 48, 72, 96 and 120 hours.
as §1
ATCC strain 43300 Staphylococcus aureus was streaked out for isolations. An isolated colony was chosen, streaked again and incubated. Isolate was chosen and then diluted to a McFarland standard of one. The estimated value was then taken to inoculate tubes containing growth media and 12, 30 or 60 μg/ml oxacillin with approximately 10^5 cfu/ml. These tubes were incubated and plated for counting cfu. A clone having no observed log reduction in cfu was selected for the rest of the experiment.
Material was calculated on a 10 ml volume. Sterile oxacillin was added to each experimental condition to a final concentration of 12, 30 or 60 μg/ml antibiotic.
All tubes were then inoculated with a dilution of the selected ATCC strain 43300 Staphylococcus aureus clone giving a final level of colony forming units of 3.3×10^5/ml (log=5.52). The tubes were incubated at 25° C. and mixed periodically. Antibiotic was re-inoculated every 24 hours at the initial concentration to maintain pressure on the organism. Plating was done at 24, 48, 72, and 120 hours. Each condition was plated by diluting 1 ml of growth material into 9 ml of MLB diluent broth. […] This mixture was serial diluted down to 10^−7 with 1 ml placed in triplicate in a sterile petri dish at each dilution point. 20 mls of TSA was added to each dilution, swirled and allowed to solidify. All dilutions were placed in a 35° C. incubator for 24 to 72 hours. Bacterial colonies on each plate were counted and the average taken then changed into log format. Any cfu/ml observed greater than 3.3×10^5 (log=5.5) were recorded as >3.3×10^5.
The tube was then taken out of the experiment and tested for ATCC strain 43300 Staphylococcus growth. The tube was spun down at 5000 rpm for 10 minutes. The supernatant was then decanted into 90 mls of Mueller-Hinton broth with 6 μg/ml oxacillin. This is for enrichment and the recovery of any MRSA cells that may be present whether healthy or stressed. The pellet had 10 mls Mueller-Hinton broth with 6 μg/ml oxacillin added to it to recover any cells that may be present. Both vessels were incubated at 35° C. for 48 hours followed by plating every 24 hours. Each vessel was plated at 10 dilutions to obtain a 1 cfu detection limit.

## COc1cccc(OC)c1C(=O)N[C@@H]1C(=O)N2[C@@H]1SC(C)(C)[C@@H]2C(=O)O [methicillin, reference compound]
[1]; 12 μg/ml methicillin (re-added every 24 hours) + MSM (% in label), inoculum 1.49×10^5/ml
  survival (cfu/ml): TNTC
[1]; 30 μg/ml methicillin + MSM (% in label)
  survival (cfu/ml): TNTC
[1]; 60 μg/ml methicillin + MSM (% in label)
  survival (cfu/ml): TNTC
[1]; methicillin alone, 12 μg/ml, 30 μg/ml and 60 μg/ml
  decrease in colony forming units from the initial inoculums value: no significant decrease in colony forming units
[2]
  MIC: 6 µg/mL (≈ 15.8 µM)

## Cc1onc(-c2ccccc2)c1C(=O)N[C@@H]1C(=O)N2[C@@H]1SC(C)(C)[C@@H]2C(=O)O [oxacillin, reference compound]
[3]; 12 μg/ml oxacillin (re-added every 24 hours) + MSM (% in label), 24 hours, three columns = triplicate platings, inoculum 3.3×10^5/ml
  survival (cfu/ml): >3.3 × 10^5 cfu/ml
[3]; 12 μg/ml oxacillin + MSM (% in label), 24 hours
  survival, Average Log: 5.5 Log
[3]; 12 μg/ml oxacillin + MSM (% in label), 48 hours
  survival, Average Log: 5.5 Log
[3]; 12 μg/ml oxacillin + MSM (% in label), 48 hours, triplicate platings
  survival (cfu/ml): >3.3 × 10^5 cfu/ml
[3]; 12 μg/ml oxacillin + MSM (% in label), 72 hours
  survival, Average Log: 5.5 Log
[3]; 12 μg/ml oxacillin + MSM (% in label), 72 hours, triplicate platings
  survival (cfu/ml): >3.3 × 10^5 cfu/ml
[3]; 12 μg/ml oxacillin + MSM (% in label), 96 hours
  survival, Average Log: 5.5 Log
[3]; 12 μg/ml oxacillin + MSM (% in label), 96 hours, triplicate platings
  survival (cfu/ml): >3.3 × 10^5 cfu/ml
[3]; 12 μg/ml oxacillin + MSM (% in label), 120 hours
  survival, Average Log: 5.5 Log
[3]; 12 μg/ml oxacillin + MSM (% in label), 120 hours, triplicate platings
  survival (cfu/ml): >3.3 × 10^5 cfu/ml
[3]; 30 μg/ml oxacillin + MSM (% in label), 24 hours
  survival, Average Log: 5.5 Log
[3]; 30 μg/ml oxacillin + MSM (% in label), 24 hours, triplicate platings
  survival (cfu/ml): >3.3 × 10^5 cfu/ml
[3]; 30 μg/ml oxacillin + MSM (% in label), 48 hours
  survival, Average Log: 5.5 Log
[3]; 30 μg/ml oxacillin + MSM (% in label), 48 hours, triplicate platings
  survival (cfu/ml): >3.3 × 10^5 cfu/ml
[3]; 30 μg/ml oxacillin + MSM (% in label), 72 hours
  survival, Average Log: 5.5 Log
[3]; 30 μg/ml oxacillin + MSM (% in label), 72 hours, triplicate platings
  survival (cfu/ml): >3.3 × 10^5 cfu/ml
[3]; 30 μg/ml oxacillin + MSM (% in label), 96 hours
  survival, Average Log: 5.5 Log
[3]; 30 μg/ml oxacillin + MSM (% in label), 96 hours, triplicate platings
  survival (cfu/ml): >3.3 × 10^5 cfu/ml
[3]; 30 μg/ml oxacillin + MSM (% in label), 120 hours
  survival, Average Log: 5.5 Log
[3]; 30 μg/ml oxacillin + MSM (% in label), 120 hours, triplicate platings
  survival (cfu/ml): >3.3 × 10^5 cfu/ml
[3]; 60 μg/ml oxacillin + MSM (% in label), 24 hours
  survival, Average Log: 5.5 Log
[3]; 60 μg/ml oxacillin + MSM (% in label), 24 hours, triplicate platings
  survival (cfu/ml): >3.3 × 10^5 cfu/ml
[3]; 60 μg/ml oxacillin + MSM (% in label), 48 hours
  survival, Average Log: 5.5 Log
[3]; 60 μg/ml oxacillin + MSM (% in label), 48 hours, triplicate platings
  survival (cfu/ml): >3.3 × 10^5 cfu/ml
[3]; 60 μg/ml oxacillin + MSM (% in label), 72 hours
  survival, Average Log: 5.5 Log
[3]; 60 μg/ml oxacillin + MSM (% in label), 72 hours, triplicate platings
  survival (cfu/ml): >3.3 × 10^5 cfu/ml
[3]; 60 μg/ml oxacillin + MSM (% in label), 96 hours
  survival, Average Log: 5.5 Log
[3]; 60 μg/ml oxacillin + MSM (% in label), 96 hours, triplicate platings
  survival (cfu/ml): >3.3 × 10^5 cfu/ml
[3]; 60 μg/ml oxacillin + MSM (% in label), 120 hours
  survival, Average Log: 5.5 Log
[3]; 60 μg/ml oxacillin + MSM (% in label), 120 hours, triplicate platings
  survival (cfu/ml): >3.3 × 10^5 cfu/ml
[3]; oxacillin alone, 12 μg/ml, 30 μg/ml and 60 μg/ml
  decrease in colony forming units from the initial inoculums value: no significant decrease in colony forming units
[2]
  MIC: 6 µg/mL (≈ 14.9 µM)
